Assay results from PubChem BioAssay (NCI).
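How tested: cells in 96-well plates exposed to compound for 48 hours at five concentrations. The concentration for 50% growth inhibition is given as GI50. TGI is the concentration that stops growth completely.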

Legend:
Test in all cases: NCI tumour cell line growth inhibition, 48 h
HT29 colon = system: HT29 colon
RPMI-8226 leukemia = system: RPMI-8226 leukemia
ACHN renal = system: ACHN renal
NCI-H522 lung = system: NCI-H522 lung
MALME-3M melanoma = system: MALME-3M melanoma
OVCAR-4 ovarian = system: OVCAR-4 ovarian
CAKI-1 renal = system: CAKI-1 renal
UACC-257 melanoma = system: UACC-257 melanoma
UO-31 renal = system: UO-31 renal
SK-MEL-5 melanoma = system: SK-MEL-5 melanoma

Q: `Cc1[nH]c(=O)nc2[nH][nH]c(=O)c12` was tested. Which TGI (HT29 colon) did it give?
A: Its TGI is over 100 µM.

Q: What about the TGI (RPMI-8226 leukemia) of the same molecule?
A: Its TGI is over 100 µM.

Q: What about the TGI (ACHN renal) of the same molecule?
A: Its TGI is over 100 µM.

Q: And the TGI (NCI-H522 lung)?
A: Its TGI is over 100 µM.

Q: And the TGI (MALME-3M melanoma)?
A: Its TGI is over 100 µM.

Q: What about the TGI (OVCAR-4 ovarian) of the same molecule?
A: The TGI was over 100 µM.

Q: What about the TGI (CAKI-1 renal) of the same molecule?
A: Its TGI is over 100 µM.

Q: For `COc1c(C(=O)/C=C/c2ccccc2)c(O)cc2occc12`, which GI50 (HT29 colon) is on record?
A: Its GI50 is 6.34 µM.

Q: What about the TGI (HT29 colon) of the same molecule?
A: Its TGI is 35.6 µM.

Q: What about the GI50 (RPMI-8226 leukemia) of the same molecule?
A: Its GI50 is 3.15 µM.

Q: What about the TGI (RPMI-8226 leukemia) of the same molecule?
A: Its TGI is 9.42 µM.

Q: And the GI50 (UACC-257 melanoma)?
A: The GI50 was 7.01 µM.

Q: And the TGI (UACC-257 melanoma)?
A: The TGI was 19.7 µM.

Q: What about the GI50 (UO-31 renal) of the same molecule?
A: The GI50 was 3.14 µM.

Q: What about the TGI (UO-31 renal) of the same molecule?
A: Its TGI is 11.8 µM.

Q: What about the GI50 (ACHN renal) of the same molecule?
A: The GI50 was 4.51 µM.

Q: And the TGI (ACHN renal)?
A: The TGI was 19.9 µM.

Q: And the GI50 (NCI-H522 lung)?
A: The GI50 was 4.29 µM.

Q: What about the TGI (NCI-H522 lung) of the same molecule?
A: Its TGI is 15.7 µM.

Q: What about the GI50 (OVCAR-4 ovarian) of the same molecule?
A: The GI50 was 5.4 µM.

Q: And the TGI (OVCAR-4 ovarian)?
A: The TGI was 26.6 µM.

Q: What about the GI50 (CAKI-1 renal) of the same molecule?
A: The GI50 was 8.07 µM.

Q: And the TGI (CAKI-1 renal)?
A: The TGI was 29.9 µM.

Q: And the GI50 (SK-MEL-5 melanoma)?
A: Its GI50 is 3.87 µM.

Q: And the TGI (SK-MEL-5 melanoma)?
A: Its TGI is 16.3 µM.

Q: For `COC(=O)Nc1nc2ccc(C3(c4ccc(F)cc4)OCCO3)cc2[nH]1`, which GI50 (HT29 colon) is on record?
A: Its GI50 is 0.317 µM.

Q: What about the TGI (HT29 colon) of the same molecule?
A: The TGI was over 100 µM.

Q: What about the GI50 (RPMI-8226 leukemia) of the same molecule?
A: Its GI50 is 0.427 µM.

Q: What about the TGI (RPMI-8226 leukemia) of the same molecule?
A: The TGI was over 100 µM.

Q: And the GI50 (UACC-257 melanoma)?
A: The GI50 was 1.28 µM.

Q: And the TGI (UACC-257 melanoma)?
A: Its TGI is over 100 µM.

Q: And the GI50 (UO-31 renal)?
A: The GI50 was 3.39 µM.

Q: What about the TGI (UO-31 renal) of the same molecule?
A: Its TGI is over 100 µM.

Q: What about the GI50 (ACHN renal) of the same molecule?
A: Its GI50 is 0.917 µM.

Q: What about the TGI (ACHN renal) of the same molecule?
A: The TGI was over 66.6 µM.

Q: And the GI50 (NCI-H522 lung)?
A: The GI50 was 0.222 µM.

Q: What about the TGI (NCI-H522 lung) of the same molecule?
A: Its TGI is 2.65 µM.

Q: And the GI50 (OVCAR-4 ovarian)?
A: The GI50 was 7.16 µM.

Q: What about the TGI (OVCAR-4 ovarian) of the same molecule?
A: The TGI was over 100 µM.

Q: What about the GI50 (CAKI-1 renal) of the same molecule?
A: The GI50 was 0.462 µM.

Q: And the TGI (CAKI-1 renal)?
A: The TGI was over 100 µM.

Q: And the GI50 (SK-MEL-5 melanoma)?
A: The GI50 was 0.267 µM.

Q: And the TGI (SK-MEL-5 melanoma)?
A: The TGI was 17.4 µM.

Q: With `Nc1ccccc1/C(O)=C1/CCOC1=O` as the molecule, how does the TGI (HT29 colon) read?
A: The TGI was over 100 µM.

Q: And the TGI (RPMI-8226 leukemia)?
A: The TGI was over 100 µM.

Q: What about the TGI (UACC-257 melanoma) of the same molecule?
A: Its TGI is over 100 µM.

Q: What about the TGI (UO-31 renal) of the same molecule?
A: The TGI was over 100 µM.

Q: What about the TGI (ACHN renal) of the same molecule?
A: The TGI was over 100 µM.

Q: And the TGI (NCI-H522 lung)?
A: Its TGI is over 100 µM.

Q: What about the TGI (MALME-3M melanoma) of the same molecule?
A: The TGI was over 100 µM.

Q: And the TGI (OVCAR-4 ovarian)?
A: The TGI was over 100 µM.

Q: And the TGI (CAKI-1 renal)?
A: Its TGI is over 100 µM.

Q: What does the source list for `NC(=O)c1cc(Cl)ccc1NC(=O)/C=C/c1ccccc1`?
A: GI50 (HT29 colon): 2.22 µM; TGI (HT29 colon): > 100 µM; GI50 (RPMI-8226 leukemia): 2.86 µM; TGI (RPMI-8226 leukemia): > 100 µM; GI50 (UACC-257 melanoma): > 38.8 µM; TGI (UACC-257 melanoma): > 100 µM; GI50 (UO-31 renal): 10.1 µM; TGI (UO-31 renal): > 100 µM; GI50 (ACHN renal): 4.75 µM; TGI (ACHN renal): > 100 µM; GI50 (NCI-H522 lung): 1.81 µM; TGI (NCI-H522 lung): 6.42 µM; GI50 (MALME-3M melanoma): 3.18 µM; TGI (MALME-3M melanoma): > 100 µM; GI50 (OVCAR-4 ovarian): 2.77 µM; TGI (OVCAR-4 ovarian): > 100 µM; GI50 (SK-MEL-5 melanoma): 0.787 µM

Q: `COC(=O)C12CC3CC(CC(C(=O)O)(C3)C1)C2` was tested. Which TGI (HT29 colon) did it give?
A: Its TGI is over 100 µM.

Q: What about the TGI (RPMI-8226 leukemia) of the same molecule?
A: The TGI was over 100 µM.

Q: What about the TGI (UACC-257 melanoma) of the same molecule?
A: Its TGI is over 100 µM.

Q: What about the TGI (UO-31 renal) of the same molecule?
A: Its TGI is over 100 µM.

Q: And the TGI (ACHN renal)?
A: Its TGI is over 100 µM.

Q: What about the TGI (NCI-H522 lung) of the same molecule?
A: Its TGI is over 100 µM.

Q: And the TGI (OVCAR-4 ovarian)?
A: Its TGI is over 100 µM.

Q: What about the TGI (CAKI-1 renal) of the same molecule?
A: Its TGI is over 100 µM.

Q: What about the TGI (SK-MEL-5 melanoma) of the same molecule?
A: Its TGI is over 100 µM.

Q: `COc1cc2ncnc(-n3ncc4cc(NC(=O)Nc5ccccc5)ccc43)c2cc1OC` was tested. Which GI50 (HT29 colon) did it give?
A: The GI50 was 0.615 µM.

Q: What about the TGI (HT29 colon) of the same molecule?
A: Its TGI is 10.9 µM.

Q: What about the GI50 (RPMI-8226 leukemia) of the same molecule?
A: The GI50 was 0.934 µM.

Q: And the TGI (RPMI-8226 leukemia)?
A: Its TGI is 12 µM.

Q: What about the GI50 (UACC-257 melanoma) of the same molecule?
A: Its GI50 is 2.32 µM.

Q: What about the TGI (UACC-257 melanoma) of the same molecule?
A: The TGI was 5.13 µM.

Q: What about the GI50 (UO-31 renal) of the same molecule?
A: Its GI50 is 0.499 µM.

Q: What about the TGI (UO-31 renal) of the same molecule?
A: Its TGI is 2.84 µM.

Q: And the GI50 (ACHN renal)?
A: The GI50 was 1.63 µM.

Q: And the TGI (ACHN renal)?
A: The TGI was 11.1 µM.

Q: And the GI50 (OVCAR-4 ovarian)?
A: The GI50 was 1.01 µM.

Q: What about the TGI (OVCAR-4 ovarian) of the same molecule?
A: The TGI was 4.26 µM.

Q: And the GI50 (CAKI-1 renal)?
A: The GI50 was 2.08 µM.

Q: What about the TGI (CAKI-1 renal) of the same molecule?
A: The TGI was 12.1 µM.

Q: What about the GI50 (SK-MEL-5 melanoma) of the same molecule?
A: The GI50 was 5.22 µM.

Q: What about the TGI (SK-MEL-5 melanoma) of the same molecule?
A: Its TGI is 21.3 µM.

Q: Which results are given for `C/C(=N\Nc1ccc(Cl)cn1)c1ccc2ccccc2n1`?
A: GI50 (HT29 colon): 5.05 µM; TGI (HT29 colon): > 100 µM; GI50 (RPMI-8226 leukemia): 2.05 µM; TGI (RPMI-8226 leukemia): > 100 µM; GI50 (UACC-257 melanoma): 5.33 µM; TGI (UACC-257 melanoma): 97.3 µM; GI50 (UO-31 renal): 1.74 µM; TGI (UO-31 renal): 12.9 µM; GI50 (ACHN renal): 2.49 µM; TGI (ACHN renal): > 100 µM; GI50 (NCI-H522 lung): 3.24 µM; TGI (NCI-H522 lung): > 100 µM; GI50 (MALME-3M melanoma): 2.21 µM; TGI (MALME-3M melanoma): > 100 µM; GI50 (OVCAR-4 ovarian): 1.52 µM; TGI (OVCAR-4 ovarian): > 100 µM; GI50 (CAKI-1 renal): 2.81 µM; TGI (CAKI-1 renal): 87.1 µM
